Data as given in patent US20100256183A1, “FUNGICIDAL 2-ALKYLTHIO-2-QUINOLINYLOXY-ACETAMIDE DERIVATIVES” (priority 2007, published 2010).
Read-outs that look alike come from different tables or passages of the source.

Columns and labels:
Septoria nodorum = assay: Leaf disk assay, Septoria nodorum (wheat glume blotch); format: in vivo; details: Parastagonospora nodorum, foliar, 96 h, read-out: control of fungal infection
Pythium ultimum = Pythium ultimum (damping off) growth inhibition in potato dextrose broth, photometric; format: cell-based; details: Globisporangium ultimum, read-out: control of fungal infection
Phytophthora infestans = assay: whole plant or invertebrate; format: in vivo; details: in Solanum lycopersicum, foliar, 96 h, read-out: control of fungal infection
[1] = system: Erysiphe graminis f.sp. tritici; assay: Leaf disk assay, Erysiphe graminis f.sp. tritici (wheat powdery mildew); format: in vivo; details: Blumeria graminis, foliar, 96 h, read-out: control of fungal infection
Pyricularia oryzae = assay: whole plant or invertebrate; format: in vivo; details: foliar, 96 h, read-out: control of fungal infection
Plasmopara viticola = assay: Leaf disk assay, Plasmopara viticola (downy mildew of grapevine); format: in vivo; details: foliar, 168 h, read-out: control of fungal infection
[2] = 200 ppm, wheat leaf segments, preventive, four days after inoculation

CCc1cc(OC(SC)C(=O)NC(C)(C)C#CCOC)cc2cc(Br)cnc12 (stereo not drawn) [35(4), 2-(3-Bromo-8-ethyl-quinolin-6-yloxy)-N-(4-methoxy-1,1-dimethyl-but-2-ynyl)-2-methylsulfanyl-acetamide]
≥ 60%: pest or weed control at 200 ppm (Septoria nodorum) | inhibition of growth at 20 ppm (Pythium ultimum; 48 h) | pest or weed control at 200 ppm (Phytophthora infestans) | pest or weed control at 200 ppm [1] | pest or weed control at 200 ppm (Pyricularia oryzae) | pest or weed control at 200 ppm (Plasmopara viticola)

C#CC(C)(C)NC(=O)C(Oc1cc(C)c2ncc(Br)cc2c1)SC (stereo not drawn) [2(4), 2-(3-Bromo-8-methyl-quinolin-6-yloxy)-N-(1,1-dimethyl-prop-2-ynyl)-2-methylsulfanyl-acetamide]
≥ 60%: pest or weed control at 200 ppm (Septoria nodorum; [2]) | inhibition of growth at 20 ppm (Pythium ultimum; 20 ppm, inhibition of growth after 48 hours at 24° C.) | pest or weed control at 200 ppm (Phytophthora infestans) | pest or weed control at 200 ppm [1, 2] | pest or weed control at 200 ppm (Pyricularia oryzae) | pest or weed control at 200 ppm (Plasmopara viticola; 200 ppm, grapevine leaf disks, preventive, seven days after inoculation)
